{"source": "patent US20090180958A1", "about": "“Diagnostic and therapeutic agents” (Karyon-CTT Ltd., priority 2005, published 2009)", "key": {"[1]": {"system": "A549 cells", "assay": "Fluorescent targeting agent staining of fixed cells", "type": "cell-based, human", "details": "500 μg/ml in PBS, pH 7.4, added prior to F5M-A49", "quoted_text": "A549 cells and HeLa cells (described in Example 18) were grown on glass slides, washed with PBS and then fixed with methanol. The fluorescent targeting agent F5M-A49 (described in Example 10) was used to stain these cells as follows: Cells were first blocked with blocking buffer (1.0% BSA, 0.05% Tween20 in PBS, pH 7.4) for one hour at 20° C. The cells on the glass slides were incubated with 20 μl of F5M-A49 targeting agent (50 μg/ml in PBS, pH 7.4). As control, binding of F5M-A49 was competed with 20 μl of IS257 targeting unit (free peptide described in Example 3), 500 μg/ml in PBS, pH 7.4) prior to addition of the targeting agent. As negative controls, cells not incubated with any targeting agent were used. After the staining the cells were mounted on object glasses with mountex (Histolab Products Ltd). After this cells were viewed under a fluorescent microscope (Carl Zeiss Microscopy, Jena, Germany)."}, "[2]": {"system": "A549, NCI-H23, NCI-H520, NCI-H460, C8161/M1, HeLa, NIH3T3, E10V, SVEC4-10 cell lines", "assay": "Cytotoxicity assay (MTT)", "type": "cell-based", "details": "50 μg/ml and 500 μg/ml; 24 h, 48 h (72 h); all nine tested cell lines", "method": "In this assay cell lines were exposed to two different concentrations (50 μg/and 500 μg/ml) of IS257 targeting unit (described in Example 3) for two to three days to test the toxicity of the peptides. The measurement of cell viability was done with MTT (Thiazolyl blue, Sigma M-5655 ) tetrazolium salt. MTT is cleaved to water-insoluble formazan dye by the “succinate-tetrazolium reductase” system which is active only in viable cells. After formazan was solubilized by 10% SDS-0.01 M HCl, it was quantified in an ELISA spectrometer (ThermoLabsystems Multiscan EX) at 560 nm. CuSAO2 [trans-bis(salicylaldoximato) copper(II)] (Elo HO, Lumme PO., 1985) 7.5 μg/ml was used as a positive control for 100% toxicity.\nProcedure. Cells were trypsinized from the cell culture dish (ø9 cm) with 1 ml of TE for 1-5 minutes and moved to a 50 ml Falcon tube. […]\nThen 40 μl of IS257 targeting unit in appropriate medium were added to the wells in two concentrations, so that final concentrations were 50 μg/ml and 500 μg/ml, and the volume of the wells was raised back to 100 μl. […] The next day the cell morphology was analyzed with a microscope. […]\nThe next day, the MTT assay described above was performed. The viable count (v.c.) was calculated as:\nAverage toxicated cell absorbance−Average DMEM absorbance=Viable count Average living cell absorbance−Average DMEM absorbance […]"}, "[3]": {"assay": "Immunogenicity: immunization of mice and serological antibody ELISA", "type": "in vivo, balb/c female mice", "details": "i.p. 50 μg day 0, 25 μg days 14, 28, 56, 84; end point bleed day 98, serum 1:40; HP201 as capture antigen", "method": "Mice and immunization. Female 6- to 8-week old balb/c female mice (Harlan Laboratories, The Netherlands) were used in this study. The targeting unit IS257 (described in Example 3) was dissolved in sterile saline at 0.5 mg/ml and 0.25 mg/ml concentrations. A group of five mice were initially immunized intraperitoneally with 50 μg of targeting unit on day 0. The following immunizations were done with 25 μg of targeting unit on days 14, 28, 56 and 84. Mice were bled from the tail vein on day 0 (preimmune bleed) and thereafter on days 42, 70, and 98 (end point bleed). Blood was collected in tubes and the serum was clarified by centrifugation at 3500 RPM for 7 minutes. […]\nSerological antibody assay. […] The wells were washed five times with washing buffer (PBS containing 0.05% Tween20) before incubating for 1 h at 37° C. with 150 μl of a 1:1000 dilution of horseradish peroxidase conjugated Affinipure of goat anti-mouse IgG+IgM (Jackson ImmunoResearch Europe Ltd) and detected with a DAB (3,3′-diaminobentzidine) substrate kit for peroxidase (Vector Laboratories).\nAs a positive control the horseradish peroxidase conjugated Affinipure goat anti-mouse IgG+IgM (10 μg/ml) was used to coat the wells of Reacti-Bind Maleimide activated clear strip plate overnight at 4° C. […] The plates were read at 405 nm using an ELISA plate reader (ThermoLabsysrems Multiskan EX)."}, "[4]": {"assay": "In vivo cytotoxicity (behaviour after i.v. injection)", "parameters": "species or system Athymic nude mice", "details": "1 mg i.v. tail vein; observed 30 min after injection and 15 min on following day", "method": "The behaviour of mice was observed during 30 min right after injection and during 15 min on the following day (comparison to non-injected mouse). Three mice were taken into this study (plus non-injected controls)."}}, "data": [{"substance": "Ac-ARRPKLD-NH2 [IS257]", "values": [{"measurement": "competition of F5M-A49 binding to A549 cells by free peptide", "setting": "[1]", "result": "blocked"}, {"measurement": "toxicity to cell lines (viable count, MTT)", "setting": "[2]", "result": "non-toxic"}, {"measurement": "immunogenicity (anti-targeting unit antibodies in serum, ELISA, absorbance at 405 nm)", "setting": "[3]", "result": "non-immunogenic"}, {"measurement": "toxic effect on mice (behaviour)", "setting": "[4]", "result": "did not have any toxic effect"}]}]}
